Reference: patent US10286000B2, “Retinoid X receptor-gamma agonists and retinoid X receptor-alpha antagonists for treatment of cancer” (St. Jude Children's Research Hospital, Inc., priority 2013, dated 2019)
Entries after “also recorded” stand apart in the source; their conditions may differ.

Columns and labels:
[1] = system: NKG2DL (MICA-B, ULBP1-3) surface expression; assay: flow cytometry of NKG2DL cell surface expression in cancer cell lines; type: cell-based, human; conditions: for effect of co-treatment on SPIR's upregulation of NKG2DLs: HCT116, SPIR 56 μM 3 days, HX531 10 μM, caffeine 1.5 mM, wortmannin 10 μM, KU55933 10 μM, VE-821 10 μM; for NKG2DL expression, compound alone: HCT116 cells, 3 days
Procedure: Data are representative of five independent experiments. […] Controls were stained with APC-conjugated anti-human Fc antibody alone without preincubation with NKG2D-Fc. Data are representative of three independent experiments. […] Results are representative of two independent experiments. […] (E) NKG2DL mRNA expression in the colon cancer cell lines was analyzed by qRT-PCR analysis. Data are normalized to GAPDH mRNA levels and are presented as fold-change relative to the expression in DMSO-treated cells (n=5). (F) Lentiviral-based luciferase reporter construct containing the putative ULBP2 promoter (−2415 to 0 bp from the transcription start site: 73 bp upstream of ATG) was transduced into the colon cancer cell lines. Positively transduced cells were selected by puromycin treatment (2 μg/ml) for 2 weeks. […] Data shown are expressed as fold-change relative to the luciferase activity observed in DMSO-treated cells (n=3). * P<0.05, ** P<0.01.
(§1) Cell lines were stained with allophycocyanin-conjugated anti-MICA, anti-MICB, or anti-ULBP2 antibodies for 20 min at 4° C. For ULBP1 and ULBP3 staining, cells were first incubated with anti-ULBP1 and anti-ULBP3 antibodies and then with allophycocyanin-conjugated goat anti-mouse IgG antibody. To analyze total NKG2DL cell surface expression, cells were first incubated with human NKG2D-Fc for 20 min at 4° C. and then with allophycocyanin-conjugated mouse anti-human IgG (Fc) antibody. Cells were washed and analyzed on a C6 flow cytometer (Accuri). Data were analyzed using FlowJo software (TreeStar).

TIMP2 and TIMP3 = assay: qRT-PCR of TIMP2 and TIMP3 mRNA; type: cell-based, human; conditions: HCT116 cells, 3 days
Procedure: (§2) The number of cells that invaded the ECM was determined after 24 h. Data are expressed as percentage change in tumor invasion relative to that of DMSO-treated cells (n=3). (D) Wound healing by DMSO- and SPIR-treated HCT116, HT29, and CAL27 cells was compared. Data are calculated as the percentage change in distance of migration relative to that of DMSO-treated cells (n=3). […] Tumor xenografts and lung metastases were detected by bioluminescence imaging on day 25. Data are shown as the average total flux (photons/second)±standard deviation (n=8). (F) The lung metastases (arrows) were confirmed by examining lung tissue sections. * P≤0.05, ** P<0.01, *** P<0.005, **** P<0.0001.
For qRT-PCR, total RNA was extracted from untreated or drug-treated tumor cells by using the RNA Clean & Concentrator (Zymo Research). All cDNA was generated by using the SuperScript VILO cDNA Synthesis kit (Life Technologies) and diluted 10-fold for analysis using the 7900HT Fast Real-time PCR System (Applied Biosystems). The data were calculated as the CT of target genes normalized to the CT of GAPDH of each sample. Primer sequences of the target genes were: MICA-F: 5′-[…]-3′, (SEQ ID NO: 14) MICA-R: 5′-[…]-[…]-3′, (SEQ ID NO: 15) MICB-F: 5′-[…]-3′, (SEQ ID NO: 16) MICB-R:5′-CCCTC-[…]-3′, (SEQ ID NO: 17), ULBP1-F:5′-[…]-3′, (SEQ ID NO: 18), ULBP1-R:5′-[…]-3′, (SEQ ID NO: 19), ULBP2-F:5′-[…]-3′, (SEQ ID NO: 20), ULBP2-R:5′-[…]-3′, (SEQ ID NO: 21), ULBP3-F:5′-[…]-TTCG-3′, (SEQ ID NO: 22), ULBP3-R:[…]-3′, (SEQ ID NO: 23), TIMP2-F:5′-[…]-[…]-3′, (SEQ ID NO: 24), TIMP2-R:[…]-3′, (SEQ ID NO: 25), TIMP3-F:5′-[…]-3′, (SEQ ID NO: 26), TIMP3-R:5′-[…]-[…]-3′ (SEQ ID NO: 27), GAPDH-F: 5′-[…]3′ (SEQ ID NO: 28), GAPDH-R: 5′-G-[…]-3′ (SEQ ID NO: 29). […] Differentially expressed transcripts were analyzed by ANOVA on Spotfire program.

[2] = system: HCT116, HT29, and CAL27 cells; assay: in vitro cell invasion assay (ECM-coated Transwell); type: cell-based, human; conditions: HCT116 cells
Procedure: as §2
The invasiveness of the tumor cells was determined by using the CytoSelect 96-well Cell Invasion Assay with Basement Membrane (Cell Biolabs) according to the manufacturer instructions.

[3] = system: HCT116, HT29, and CAL27 cells; assay: wound-healing assay; type: cell-based, human; conditions: HCT116 cells
Procedure: as §2
Confluent cell layers of CAL27 and HT29 cells with a 500 μm±50 μm gap were formed by using Ibidi culture inserts (RPI Corp.). Gap distances were measured at various times using a Nikon Eclipse Ti inverted microscope and NIS-Elements software (Nikon).

47 NHRs in HCT116 cells = assay: human nuclear hormone receptor siRNA library / siRNA knockdown, NKG2DL expression by NKG2D-Fc staining; type: cell-based
Procedure: as §1
For the transfection study, 2×10^5 cells were transfected with 60 pmol of siRNA molecules using lipofectamine RNAiMAX according to the manufacturer's instructions (Invitrogen).
Consistent with previous reports, RXR-gamma was constitutively expressed in HCT116 cells (FIG. 5C) (Papi et al. 2010. Cancer Lett 297:65-74). Expression of RXR-gamma mRNA was also observed in all other cell lines tested. (FIG. 5D).

CS(=O)(=O)c1ccc(-c2cnc(N)c(C(=O)Nc3ccccc3)n2)cc1 [VE-821]
effect of co-treatment on SPIR's upregulation of NKG2DLs [1]: only partially reduced
effect of co-treatment on NKG2DL expression at increased concentration ([1]; HCT116, SPIR 56 μM, VE-821 20 μM): did not further affect NKG2DL expression

CN1c2ccc([N+](=O)[O-])cc2N=C(c2ccc(C(=O)O)cc2)c2cc3c(cc21)C(C)(C)CCC3(C)C [HX531]
effect of co-treatment on SPIR's upregulation of NKG2DLs [1]: significantly reduced

C[C@]12CCC(=O)C=C1C=C[C@@H]1[C@@H]2CC[C@@]2(C)[C@H]1CC[C@@]21CCC(=O)O1 [canrenone]
NKG2DL expression, compound alone [1]: did not reproduce the phenotypes of enhanced expression of NKG2DL
TIMP2 expression (TIMP2 and TIMP3): neither canrenone nor eplerenone upregulated TIMP2 expression
cell invasion, MR antagonists vs SPIR [2]: did not reproduce the suppressive effect of SPIR
cell migration, MR antagonists vs SPIR [3]: did not reproduce the suppressive effect of SPIR

COC(=O)[C@@H]1CC2=CC(=O)CC[C@]2(C)[C@@]23O[C@@H]2C[C@@]2(C)[C@@H](CC[C@@]24CCC(=O)O4)[C@H]13 [eplerenone]
NKG2DL expression, compound alone [1]: did not reproduce the phenotypes of enhanced expression of NKG2DL
TIMP2 expression (TIMP2 and TIMP3): neither canrenone nor eplerenone upregulated TIMP2 expression
cell invasion, MR antagonists vs SPIR [2]: did not reproduce the suppressive effect of SPIR
cell migration, MR antagonists vs SPIR [3]: did not reproduce the suppressive effect of SPIR

O=c1cc(-c2cccc3c2Sc2ccccc2S3)oc(N2CCOCC2)c1 [KU55933]
effect of co-treatment on SPIR's upregulation of NKG2DLs [1]: completely abolished

RXR-alpha siRNA: siRNA targeting RXR-alpha, ThermoScientific Cat No. D-003443-06; GGGAGAAGGUCUAUGCGUC (listed as RNA, chemistry not given here)
NKG2DL expression after gene knockdown without drug treatment (47 NHRs in HCT116 cells): enhances the expression of NKG2DLs; also recorded: increase of NKG2DL expression
SPIR-mediated NKG2DL upregulation after siRNA knockdown (47 NHRs in HCT116 cells): did not affect the potential of SPIR in upregulating NKG2DL expression

Cn1c(=O)c2c(ncn2C)n(C)c1=O [caffeine]
effect of co-treatment on SPIR's upregulation of NKG2DLs [1]: completely abolished

CC1=C(/C=C/C(C)=C\C=C\C(C)=C\C(=O)O)C(C)(C)CCC1 [9-cis-RA, 9-cis-retinoic acid]
NKG2DL expression, compound alone [1]: did not induce the upregulation of NKG2DL expression; also recorded: decrease was observed
